This is an account of results in patent US8362000B2, “Azetidinyl diamides as monoacylglycerol lipase inhibitors” (Janssen Pharmaceutica NV, priority 2009, dated 2013).

One assay has as its target T1, mutant MGL (Homo sapiens, UniProt Q99685, L169S/L176S).
T1 sequence (Q99685 1-303 L169S/L176S): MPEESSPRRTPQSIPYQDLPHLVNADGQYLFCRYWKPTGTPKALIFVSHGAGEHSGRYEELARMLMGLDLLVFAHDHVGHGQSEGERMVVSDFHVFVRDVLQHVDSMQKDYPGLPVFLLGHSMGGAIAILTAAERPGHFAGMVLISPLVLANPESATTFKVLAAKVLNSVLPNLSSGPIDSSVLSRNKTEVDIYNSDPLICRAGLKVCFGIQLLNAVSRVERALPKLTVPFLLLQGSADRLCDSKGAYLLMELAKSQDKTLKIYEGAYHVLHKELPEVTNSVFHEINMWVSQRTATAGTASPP
The assay is described as follows: MGL ThermoFluor assay - mutant. Type of assay: binding. (In DSF a fluorescence change marks the thermal transition of the protein.)

The target of assay [1] is T2, purified wild type MGL (wt-MGLL 6H-11-313) (Homo sapiens, UniProt Q99685).
T2 sequence (Q99685 1-303): T1 sequence (Q99685 1-303 L169S/L176S) with S169L, S176L

Setting [2] is: ThermoFluor, compound concentration measured by qNMR, read-out: MGL mutant ThermoFluor qKd (using qNMR conc.).
The mark [3] stands for this setting: ThermoFluor, compound concentration measured by qNMR, read-out: MGL mutant ThermoFluor qKd (μM) (using qNMR conc.).
Where [4] appears, read: ThermoFluor concentration-response, read-out: MGL mutant ThermoFluor Kd.
Where [5] appears, read: compound concentration measured by qNMR, read-out: MGL mutant ThermoFluor qKd (using qNMR conc.).
Where [6] appears, read: ThermoFluor thermal stability binding assay, read-out: MGL mutant ThermoFluor Kd.

SMILES strings stand for the structures. Substitutions are numbered along the chain they refer to. Where two headings read alike, the source gives them in different places. Where only a bound is given, the exact number is not on record here.

Turning to `Cc1ccc(-n2ccc3cc(C(=O)N4CC(N5CCN(C(=O)c6nccs6)CC5)C4)ccc32)nc1` [Cpd 1073, 1-(5-Methylpyridin-2-yl)-5-({3-[4-(1,3-thiazol-2-ylcarbonyl)piperazin-1-yl]azetidin-1-yl}carbonyl)-1H-indole], on mutant MGL (setting [2]), the Kd turned out to be 0.087 µM. Moreover, the IC50 in assay [1] worked out at 34 nM.
Consider `O=C(c1sc2cc(C(F)(F)F)ccc2c1Cl)N1CC(N2CCN(C(=O)c3cscn3)C(C(F)(F)F)C2)C1` (stereo not drawn) [Cpd 833], for which the Kd at mutant MGL (setting [3]) was found to be 3.33 µM. This molecule also displayed an IC50 in assay [1] of 4560 nM.
In the case of `O=C(c1cscn1)N1CCN(C2CN(C(=O)c3cccc(-c4ccccc4)c3F)C2)CC1` [Cpd 1240], the Kd on mutant MGL (setting [4]) amounted to 2.49 µM. Besides, in assay [1], half-maximal inhibition (IC50) required 459 nM.
For the molecule `C[C@@H]1CN(C(=O)c2nccs2)C[C@H](C)N1C1CN(C(=O)c2cc3ccc(C(F)(F)F)cc3s2)C1` [Cpd 953], the Kd at mutant MGL (setting [2]) was above 26.9 µM. Also, the concentration for half-maximal inhibition (IC50) in assay [1] is above 16700 nM.
Consider `Cc1c(C(=O)N2CCN(C3CN(C(=O)c4cc[nH]c4)C3)CC2)sc2cc(C(F)(F)F)ccc12` [Cpd 748], for which the Kd at mutant MGL (setting [4]) worked out at 0.04 µM. The half-maximal inhibitory concentration (IC50) in assay [1] worked out at 384 nM.
Take `O=C(c1ccc2c(cnn2-c2ccc(C(F)(F)F)cc2)c1)N1CC(N2CCN(C(=O)c3nccs3)CC2)C1` [Cpd 1080]: the Kd on mutant MGL (setting [3]) came out at 0.006 µM. For the same molecule, the IC50 in assay [1] is 9 nM.
Take `O=C(c1cscn1)N1CC(N2CCN(C(=O)c3cc4cc(Cl)ccc4o3)CC2)C1` [Cpd 809]: the Kd on mutant MGL (setting [4]) amounted to 0.769 µM. 2100 nM corresponded to half-maximal inhibition in assay [1] (IC50).
As to `O=C(c1ccc2c(ccn2-c2ccc(Cl)cn2)c1)N1CC(N2CCN(C(=O)c3cscn3)CC2)C1` [Cpd 1180, 1-(5-Chloropyridin-2-yl)-5-({3-[4-(1,3-thiazol-4-ylcarbonyl)piperazin-1-yl]azetidin-1-yl}carbonyl)-1H-indole], the Kd at mutant MGL (setting [2]) was found to be 0.019 µM. In assay [1], this molecule had an IC50 of 75 nM.
The matching figures for `Cc1c(C(=O)N2CC(N3CCN(C(=O)c4cscn4)CC3)C2)n(C)c2ccc(Cl)cc12` [Cpd 758]: 0.5 µM and 535 nM.
In the same order, the values of `O=C(c1ccccc1)c1c[nH]c(C(=O)N2CC(N3CCN(C(=O)c4nccs4)CC3)C2)c1` [Cpd 874] are 8.46 µM and 15200 nM.
On to `O=C(c1ccc2c(cnn2Cc2ccc(F)cc2)c1)N1CC(N2CCN(C(=O)c3nccs3)CC2)C1` [Cpd 1029, 1-(4-Fluorobenzyl)-5-({3-[4-(1,3-thiazol-2-ylcarbonyl)piperazin-1-yl]azetidin-1-yl}carbonyl)-1H-indazole], for which the Kd at mutant MGL (setting [5]) amounted to 0.006 µM. The IC50 in assay [1] was below 5 nM.
Take `O=C(c1ccc(-c2ccccc2)cc1)N1CC(N2CCN(C(=O)c3c[nH]c4ccccc34)CC2)C1` [Cpd 1308]: the Kd on mutant MGL (setting [6]) turned out to be 2.06 µM. In assay [1], this molecule yielded an IC50 of 9280 nM.
Take `O=C(c1ccc2c(c1)[nH]c(=O)n2CC(F)(F)F)N1CC(N2CCN(C(=O)c3nccs3)CC2)C1` [Cpd 937]: the Kd at mutant MGL (setting [4]) came to 0.096 µM. The same molecule returned a 50% inhibitory concentration (IC50) in assay [1] of 250 nM.
With `O=C(c1ccc2c(cnn2Cc2ccc(C(F)(F)F)cc2)c1)N1CC(N2CCN(C(=O)c3nccs3)CC2)C1` [Cpd 1036, 5-({3-[4-(1,3-Thiazol-2-ylcarbonyl)piperazin-1-yl]azetidin-1-yl}carbonyl)-1-[4-(trifluoromethyl)benzyl]-1H-indazole], the Kd at mutant MGL (setting [5]) worked out at 0.005 µM. Moreover, the 50% inhibitory concentration (IC50) in assay [1] was below 5 nM.
Consider `O=C(c1cnn(-c2ccccc2)n1)N1CC(N2CCN(C(=O)c3nccs3)CC2)C1` [Cpd 1300], for which the Kd on mutant MGL (setting [4]) is 3.33 µM. Half-maximal inhibition in assay [1] (IC50) was put at 4130 nM.
Take `Cc1c(C(=O)N2CC(N3CCN(C(=O)c4ccc[nH]4)CC3)C2)n(C)c2ccc(Cl)cc12` [Cpd 733]: the Kd on mutant MGL (setting [2]) turned out to be 0.453 µM. Further, in assay [1], the midpoint of inhibition, the IC50, lay at 240 nM.
With `CC(C)=Cc1c(C(=O)N2CC(N3CCN(C(=O)c4ccccc4)CC3)C2)sc2cc(C(F)(F)F)ccc12` [Cpd 511], at mutant MGL (setting [6]), the Kd is 0.002 µM. In assay [1], this molecule displayed an IC50 of 240 nM.
The matching figures for `O=C(c1nccs1)N1CCN(C2CN(C(=O)c3cccc4[nH]c(Cc5ccccc5)nc34)C2)CC1` [Cpd 980]: 5 µM and 6790 nM.
For the molecule `Cc1noc(C)c1-c1ccc2cc(C(=O)N3CC(N4CCN(C(=O)c5nccs5)CC4)C3)[nH]c2c1` [Cpd 1211], the Kd at mutant MGL (setting [3]) came out at 0.106 µM. In assay [1], this molecule returned an IC50 of 200 nM.
`O=C(c1cscn1)N1CCN(C2CN(C(=O)c3cc4cc(Cl)ccc4o3)C2)CC1` [Cpd 1444]: the Kd at mutant MGL (setting [6]) is above 31 µM. For the same molecule, in assay [1], the IC50 was above 16700 nM.
For the molecule `Cc1ccc2c(C(F)(F)F)c(C(=O)N3CC(N4CCN(C(=O)c5nccs5)CC4)C3)sc2c1` [Cpd 707, 1-(1-{[6-Methyl-3-(trifluoromethyl)-1-benzothiophen-2-yl]carbonyl}azetidin-3-yl)-4-(1,3-thiazol-2-ylcarbonyl)piperazine], the Kd at mutant MGL (setting [4]) was 0.002 µM. The same molecule came in with an IC50 in assay [1] of 105 nM.
In the case of `O=C(c1ccc(CNc2cccc(Cl)c2)cc1)N1CC(N2CCN(C(=O)C(F)(F)F)CC2)C1` [Cpd 964], the Kd on mutant MGL (setting [5]) amounted to 3.2 µM. This molecule also gave an IC50 in assay [1] of 1700 nM.
In the case of `O=C(c1cccc(NCc2ccccc2)c1)N1CC(N2CCN(C(=O)c3nccs3)CC2)C1` [Cpd 713], on mutant MGL (setting [6]), the Kd came out at 0.1 µM. The molecule also came in with an IC50 in assay [1] of 135 nM.
`O=C(c1ccc2ccn(Cc3ccncc3)c2c1)N1CC(N2CCN(C(=O)c3nccs3)CC2)C1` [Cpd 1047]: the Kd at mutant MGL (setting [5]) is 0.471 µM. Moreover, 4630 nM corresponded to half-maximal inhibition in assay [1] (IC50).
With `Cc1nccc(-n2ccc3cc(C(=O)N4CC(N5CCN(C(=O)c6nccs6)CC5)C4)ccc32)n1` [Cpd 1216, 1-(2-Methylpyrimidin-4-yl)-5-({3-[4-(1,3-thiazol-2-ylcarbonyl)piperazin-1-yl]azetidin-1-yl}carbonyl)-1H-indole], at mutant MGL (setting [2]), the Kd worked out at 0.022 µM. In assay [1], this molecule had an IC50 of 216 nM.
Regarding `COc1cncc(-c2ccc3[nH]c(C(=O)N4CC(N5CCN(C(=O)c6nccs6)CC5)C4)c(C)c3c2)c1` [Cpd 1175], the Kd at mutant MGL (setting [3]) is 0.01 µM. The same molecule yielded an IC50 in assay [1] of 66 nM.
As for `O=C(c1cc(F)cc(-c2ccccc2)c1)N1CC(N2CCN(C(=O)c3cscn3)CC2)C1` [Cpd 1273], the Kd at mutant MGL (setting [4]) was 1.83 µM. The molecule also came in with an IC50 in assay [1] of 1610 nM.
As to `O=C(c1nn(-c2ccc(Cl)cc2Cl)c2c1CCCC2)N1CC(N2CCN(C(=O)C(F)(F)F)CC2)C1` [Cpd 1311], the Kd on mutant MGL (setting [5]) came to 67.5 µM. In assay [1], this molecule showed an IC50 of 14600 nM.
In the same order, the values of `O=C(c1nccs1)N1CCN(C2CN(C(=O)c3cc4ccn(-c5ccc(F)cc5)c4cc3Cl)C2)CC1` [Cpd 1416] are 0.015 µM and 39 nM.
For `Cc1c(C(=O)N2CC(N3CCN(C(=O)c4ccc[nH]4)CC3)C2)nc2ccc(Br)cn12` [Cpd 825], the Kd at mutant MGL (setting [2]) was found to be 4.86 µM. Besides, in assay [1], half-maximal inhibition (IC50) was put at 3150 nM.
Consider `Cc1nc2cc(C(=O)N3CC(N4CCN(C(=O)c5nccs5)CC4)C3)ccc2n1-c1ccc(F)c(F)c1` [Cpd 1206], for which the Kd at mutant MGL (setting [5]) was 0.018 µM. In assay [1], this molecule registered a half-inhibitory concentration (IC50) of 171 nM.
Turning to `O=C(c1nccs1)N1CCN(C2CN(C(=O)c3sc4cc(C(F)(F)F)ccc4c3Cl)C2)C(C(F)(F)F)C1` (stereo not drawn) [Cpd 778, 1-(1-{[3-Chloro-6-(trifluoromethyl)-1-benzothiophen-2-yl]carbonyl}azetidin-3-yl)-4-(1,3-thiazol-2-ylcarbonyl)-2-(trifluoromethyl)piperazine], on mutant MGL (setting [3]), the Kd was 1.2 µM. For the same molecule, the IC50 in assay [1] was determined as 933 nM.
`O=C(c1ccc(Oc2ncc(C(F)(F)F)cc2Cl)cc1)N1CC(N2CCN(C(=O)C(F)(F)F)CC2)C1` [Cpd 802]: the Kd at mutant MGL (setting [5]) came out at 1.67 µM. In assay [1], this molecule registered an IC50 of 1720 nM.
For `O=C(c1ccccc1)N1CCN(C2CN(C(=O)c3cc(-c4cccc(F)c4)c4[nH]ccc4c3)C2)CC1` [Cpd 600], on mutant MGL (setting [3]), the Kd was 1.97 µM. Further, the IC50 in assay [1] was found to be 1150 nM.
As for `O=C(c1ccc2c(ccn2CC(F)F)c1)N1CC(N2CCN(C(=O)c3nccs3)CC2)C1` [Cpd 711, 1-(2,2-Difluoroethyl)-5-({3-[4-(1,3-thiazol-2-ylcarbonyl)piperazin-1-yl]azetidin-1-yl}carbonyl)-1H-indole], at mutant MGL (setting [5]), the Kd is 0.05 µM. Also, in assay [1], the IC50 came to 127 nM.
Turning to `O=C(c1ccc2c(c1)ncn2CCC(F)(F)F)N1CC(N2CCN(C(=O)c3nccs3)CC2)C1` [Cpd 780], on mutant MGL (setting [5]), the Kd amounted to 0.128 µM. The IC50 in assay [1] is 978 nM.
Consider `O=C(c1ccc2c(c1)ncn2-c1ccc(C(F)(F)F)cc1)N1CC(N2CCN(C(=O)c3cscn3)CC2)C1` [Cpd 1231], for which the Kd on mutant MGL (setting [5]) is 0.131 µM. In assay [1], this molecule gave an IC50 of 316 nM.
In the same order, the values of `O=C(c1ccc(Oc2cc(C(F)(F)F)ccn2)cc1)N1CC(N2CCN(C(=O)C(F)(F)F)CC2)C1` [Cpd 837] are 20 µM and 5040 nM.
`O=C(c1ccc2c(cnn2CCc2ccc(F)cc2)c1)N1CC(N2CCN(C(=O)c3nccs3)CC2)C1` [Cpd 1049, 1-[2-(4-Fluorophenyl)ethyl]-5-({3-[4-(1,3-thiazol-2-ylcarbonyl)piperazin-1-yl]azetidin-1-yl}carbonyl)-1H-indazole]: at mutant MGL (setting [5]), the Kd amounted to 0.05 µM. For the same molecule, the IC50 in assay [1] came out at 10 nM.

As usually defined, the IC50 is the concentration that inhibits the measured activity by half.
